A value given as a limit tells only on which side of the number the result lay.

This experiment deals with RS4;11 cells. Nature of the experiment: RS4;11 cell viability assay (CellTiter Glo).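 Note: acute lymphoblastic leukemia line RS4,11, EC50 derived from percentage of viable cells after treatment relative to untreated controls, cell killing taken as a measure of Bcl-2 inhibition.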 Type of experiment: cell-based, human. Conditions: Homo sapiens, RS4-11, 48 h, 50,000 cells per well, 10% human serum, 48 hours; read-out: RS4; 11 EC50 Values. A general note: ATP-based viability assays read luminescence as a measure of living cells.
Protocol: The acute lymphoblastic leukemia (ALL) cell line RS4;11 was used as the primary human cell line to assess the cellular activity of Bcl-2 selective agents in vitro and their efficacy in vivo.
Cell cytotoxicity EC50 values were assessed using CellTiter Glo (Promega) according to the manufacturer's recommendations. The EC50 values were determined as a percentage of viable cells following treatment compared to the untreated control cells.
As for `CC1(C)CCC(CN2CCN(c3ccc(C(=O)NS(=O)(=O)c4ccc(OCC5(F)CCOCC5)c(Cl)c4)c(Oc4cnc5[nH]ccc5c4)c3)CC2)=C(c2ccc(Cl)cc2)C1` [Example 286, N-({3-chloro-4-[(4-fluorotetrahydro-2H-pyran-4-yl)methoxy]phenyl}sulfonyl)-4-(4-{[2-(4-chlorophenyl)-4,4-dimethylcyclohex-1-en-1-yl]methyl}piperazin-1-yl)-2-(1H-pyrrolo[2,3-b]pyridin-5-yloxy)benzamide], the EC50 worked out at 34.5 nM.

As for `CC1(C)CC(c2ccc(Cl)cc2)=C(CN2CCN(c3ccc(C(=O)NS(=O)(=O)c4ccc(N[C@H]5CC[C@H](N6CCOCC6)CC5)c([N+](=O)[O-])c4)c(Oc4cnc5[nH]ccc5c4)c3)CC2)CO1` [Example 33, Trans-4-(4-{[4-(4-chlorophenyl)-6,6-dimethyl-5,6-dihydro-2H-pyran-3-yl]methyl}piperazin-1-yl)-N-({4-[(4-morpholin-4-ylcyclohexyl)amino]-3-nitrophenyl}sulfonyl)-2-(1H-pyrrolo[2,3-b]pyridin-5-yloxy)benzamide], the EC50 is 7.11 nM. As for `CC1(C)CCC(CN2CCN(c3ccc(C(=O)NS(=O)(=O)c4ccc(NC[C@H]5CC[C@@H](O)C5)c([N+](=O)[O-])c4)c(Oc4cnc5[nH]ccc5c4)c3)CC2)=C(c2ccc(Cl)cc2)C1` [Example 158, 4-(4-{[2-(4-chlorophenyl)-4,4-dimethylcyclohex-1-en-1-yl]methyl}piperazin-1-yl)-N-{[4-({[(1S,3R)-3-hydroxycyclopentyl]methyl}amino)-3-nitrophenyl]sulfonyl}-2-(1H-pyrrolo[2,3-b]pyridin-5-yloxy)benzamide], the EC50 turned out to be 17.9 nM. Under `CC1(C)CCC(CN2CCN(c3ccc(C(=O)NS(=O)(=O)c4ccc(N[C@@H]5CC[C@H](N6CCOCC6)C5)c([N+](=O)[O-])c4)c(Oc4cnc5[nH]ccc5c4)c3)CC2)=C(c2ccc(Cl)cc2)C1` [Example 112, 4-(4-{[2-(4-chlorophenyl)-4,4-dimethylcyclohex-1-en-1-yl]methyl}piperazin-1-yl)-N-[(4-{[(1R,3S)-3-morpholin-4-ylcyclopentyl]amino}-3-nitrophenyl)sulfonyl]-2-(1H-pyrrolo[2,3-b]pyridin-5-yloxy)benzamide] stands 20.6 nM. With `CC1(C)CCC(CN2CCN(c3ccc(C(=O)NS(=O)(=O)c4ccc(NC5CCN(C6COC6)CC5)c([N+](=O)[O-])c4)c(Oc4cnc5[nH]ccc5c4)c3)CC2)=C(c2ccc(Cl)cc2)C1` [Example 139, 4-(4-{[2-(4-chlorophenyl)-4,4-dimethylcyclohex-1-en-1-yl]methyl}piperazin-1-yl)-N-({3-nitro-4-[(1-oxetan-3-ylpiperidin-4-yl)amino]phenyl}sulfonyl)-2-(1H-pyrrolo[2,3-b]pyridin-5-yloxy)benzamide], the EC50 was determined as 16.8 nM. In the case of `CC1(C)CCC(CN2CCN(c3ccc(C(=O)NS(=O)(=O)c4ccc(O[C@@H]5CCN(C(CF)CF)C5)c([N+](=O)[O-])c4)c(Oc4cnc5[nH]ccc5c4)c3)CC2)=C(c2ccc(Cl)cc2)C1` [Example 235, 4-(4-{[2-(4-chlorophenyl)-4,4-dimethylcyclohex-1-en-1-yl]methyl}piperazin-1-yl)-N-[(4-{[(3R)-1-(1,3-difluoropropan-2-yl)pyrrolidin-3-yl]oxy}-3-nitrophenyl)sulfonyl]-2-(1H-pyrrolo[2,3-b]pyridin-5-yloxy)benzamide], the EC50 turned out to be 32.3 nM.

As to `CC1(C)CCC(CN2CCN(c3ccc(C(=O)NS(=O)(=O)c4ccc(OCC5CCOC5)c(Cl)c4)c(Oc4cnc5[nH]ccc5c4)c3)CC2)=C(c2ccc(Cl)cc2)C1` (stereo not drawn) [Example 323, 4-(4-{[2-(4-chlorophenyl)-4,4-dimethylcyclohex-1-en-1-yl]methyl}piperazin-1-yl)-N-{[3-chloro-4-(tetrahydrofuran-3-ylmethoxy)phenyl]sulfonyl}-2-(1H-pyrrolo[2,3-b]pyridin-5-yloxy)benzamide], the EC50 was determined as 717 nM. The same measure for `COC1(Cc2ccccc2-c2ccc(Cl)cc2)CCN(c2ccc(C(=O)NS(=O)(=O)c3cnc(OCC4(F)CCOCC4)c(Cl)c3)c(Oc3cnc4[nH]ccc4c3)c2)CC1` [Example 263, 4-{4-[(4′-chlorobiphenyl-2-yl)methyl]-4-methoxypiperidin-1-yl}-N-({5-chloro-6-[(4-fluorotetrahydro-2H-pyran-4-yl)methoxy]pyridin-3-yl}sulfonyl)-2-(1H-pyrrolo[2,3-b]pyridin-5-yloxy)benzamide]: > 1000 nM. The same measure for `CC1(C)CCC(CN2CCN(c3ccc(C(=O)NS(=O)(=O)c4ccc(N[C@@H]5CCN(C(CF)CF)C5)c([N+](=O)[O-])c4)c(Oc4cnc5[nH]ccc5c4)c3)CC2)=C(c2ccc(Cl)cc2)C1` [Example 207, 4-(4-{[2-(4-chlorophenyl)-4,4-dimethylcyclohex-1-en-1-yl]methyl}piperazin-1-yl)-N-{[4-({(3R)-1-[2-fluoro-1-(fluoromethyl)ethyl]pyrrolidin-3-yl}amino)-3-nitrophenyl]sulfonyl}-2-(1H-pyrrolo[2,3-b]pyridin-5-yloxy)benzamide]: 3.76 nM; for `CC1(C)CCC(CN2CCN(c3ccc(C(=O)NS(=O)(=O)c4cnc(OCC5CCC(F)(F)CC5)c(Cl)c4)c(Oc4cnc5[nH]ccc5c4)c3)CC2)=C(c2ccc(Cl)cc2)C1` [Example 287, N-({5-chloro-6-[(4,4-difluorocyclohexyl)methoxy]pyridin-3-yl}sulfonyl)-4-(4-{[2-(4-chlorophenyl)-4,4-dimethylcyclohex-1-en-1-yl]methyl}piperazin-1-yl)-2-(1H-pyrrolo[2,3-b]pyridin-5-yloxy)benzamide]: 593 nM. Under `CC1(C)CCC(CN2CCN(c3ccc(C(=O)NS(=O)(=O)c4ccc(NC[C@H]5CC[C@H](O)C5)c([N+](=O)[O-])c4)c(Oc4cnc5[nH]ccc5c4)c3)CC2)=C(c2ccc(Cl)cc2)C1` [Example 157, 4-(4-{[2-(4-chlorophenyl)-4,4-dimethylcyclohex-1-en-1-yl]methyl}piperazin-1-yl)-N-{[4-({[(1S,3S)-3-hydroxycyclopentyl]methyl}amino)-3-nitrophenyl]sulfonyl}-2-(1H-pyrrolo[2,3-b]pyridin-5-yloxy)benzamide] stands 10.9 nM; under `CC1(C)CCCC(CN2CCN(c3ccc(C(=O)NS(=O)(=O)c4ccc(NCC5CCOCC5)c([N+](=O)[O-])c4)c(Oc4cnc5[nH]ccc5c4)c3)CC2)=C1c1ccc(Cl)cc1` [Example 150, 4-(4-{[2-(4-chlorophenyl)-3,3-dimethylcyclohex-1-en-1-yl]methyl}piperazin-1-yl)-N-({3-nitro-4-[(tetrahydro-2H-pyran-4-ylmethyl)amino]phenyl}sulfonyl)-2-(1H-pyrrolo[2,3-b]pyridin-5-yloxy)benzamide], 51 nM; under `CN1CCC(F)(COc2ccc(S(=O)(=O)NC(=O)c3ccc(N4CCN(CC5=C(c6ccc(Cl)cc6)CC(C)(C)CC5)CC4)cc3Oc3cnc4[nH]ccc4c3)cc2S(=O)(=O)C(F)(F)F)CC1` [Example 230, 4-(4-{[2-(4-chlorophenyl)-4,4-dimethylcyclohex-1-en-1-yl]methyl}piperazin-1-yl)-N-({4-[(4-fluoro-1-methylpiperidin-4-yl)methoxy]-3-[(trifluoromethyl)sulfonyl]phenyl}sulfonyl)-2-(1H-pyrrolo[2,3-b]pyridin-5-yloxy)benzamide], 52.8 nM. For the molecule `CC1(C)CCC(CN2CCN(c3ccc(C(=O)NS(=O)(=O)c4ccc(NCCCN5CCCC5)c([N+](=O)[O-])c4)c(Oc4cccc5[nH]c6ccccc6c45)c3)CC2)=C(c2ccc(Cl)cc2)C1` [Example 8, 2-(9H-carbazol-4-yloxy)-4-(4-{[2-(4-chlorophenyl)-4,4-dimethylcyclohex-1-en-1-yl]methyl}piperazin-1-yl)-N-({3-nitro-4-[(3-pyrrolidin-1-ylpropyl)amino]phenyl}sulfonyl)benzamide], the EC50 was 158 nM.

As for `CC1(C)CCC(CN2CCN(c3ccc(C(=O)NS(=O)(=O)c4cnc(OCCC5CCOCC5)c(C#N)c4)c(Oc4cnc5[nH]ccc5c4)c3)CC2)=C(c2ccc(Cl)cc2)C1` [Example 278, 4-(4-{[2-(4-chlorophenyl)-4,4-dimethylcyclohex-1-en-1-yl]methyl}piperazin-1-yl)-N-({5-cyano-6-[2-(tetrahydro-2H-pyran-4-yl)ethoxy]pyridin-3-yl}sulfonyl)-2-(1H-pyrrolo[2,3-b]pyridin-5-yloxy)benzamide], the EC50 was found to be 794 nM.

`CC1(C)CCC(CC2CCN(c3ccc(C(=O)NS(=O)(=O)c4cnc(OCC5(O)CCC(F)(F)CC5)c(Cl)c4)c(Oc4cnc5[nH]ccc5c4)c3)CC2)=C(c2ccc(Cl)cc2)C1` [Example 302, N-({5-chloro-6-[(4,4-difluoro-1-hydroxycyclohexyl)methoxy]pyridin-3-yl}sulfonyl)-4-(4-{[2-(4-chlorophenyl)-4,4-dimethylcyclohex-1-en-1-yl]methyl}piperidin-1-yl)-2-(1H-pyrrolo[2,3-b]pyridin-5-yloxy)benzamide]: the EC50 amounted to 381 nM. As to `COC1(COc2ccc(S(=O)(=O)NC(=O)c3ccc(N4CCN(CC5=C(c6ccc(Cl)cc6)CC(C)(C)CC5)CC4)cc3Oc3cnc4[nH]ccc4c3)cc2[N+](=O)[O-])CCOCC1` [Example 234, 4-(4-{[2-(4-chlorophenyl)-4,4-dimethylcyclohex-1-en-1-yl]methyl}piperazin-1-yl)-N-({4-[(4-methoxytetrahydro-2H-pyran-4-yl)methoxy]-3-nitrophenyl}sulfonyl)-2-(1H-pyrrolo[2,3-b]pyridin-5-yloxy)benzamide], the EC50 stood at 135 nM.

Turning to `CC1(C)CCC(CN2CCN(c3ccc(C(=O)NS(=O)(=O)c4ccc(NCc5cccc(OC(F)(F)F)c5)c([N+](=O)[O-])c4)c(Oc4cnc5[nH]ccc5c4)c3)CC2)=C(c2ccc(Cl)cc2)C1` [Example 175, 4-(4-{[2-(4-chlorophenyl)-4,4-dimethylcyclohex-1-en-1-yl]methyl}piperazin-1-yl)-N-[(3-nitro-4-{[3-(trifluoromethoxy)benzyl]amino}phenyl)sulfonyl]-2-(1H-pyrrolo[2,3-b]pyridin-5-yloxy)benzamide], the EC50 was > 1000 nM.
